Data taken from patent US20130303788A1, “METHOD OF PRODUCING BIPHENOLIC COMPOUND, NOVEL BIPHENYL COMPOUND AND SYNTHESIS METHOD THEREOF, AND PHARMACEUTICAL COMPOSITION FOR TREATING PARKINSON'S DISEASE” (Tzu Chi University, priority 2012, published 2013).

Experiments:
[1] = test system: iNOS (Inducible Nitric Oxide Synthase); experiment: iNOS expression level (iNOS immunohistochemistry) in striatum of 6-OHDA mouse model of PD; type: in vivo, NMRI mice; details: Day 21 after 6-OHDA, FIG. 17
Method: The respective NMRI mouse was deeply anaesthetized with thiopental (50 mg/kg, intraperitoneally). The respective NMRI mouse was perfused transcardially with a heparin solution (0.05% heparin in 0.1 M PBS), and was subsequently perfused with 100 mL of ice-cold fixative (4% paraformaldehyde in 0.1 M PBS). The brain of the respective NMRI mouse was removed and was postfixed in the same ice-cold fixative for 12 hours, followed by dehydration in 30% sucrose in 0.1 M PBS. The brain was frozen and was subjected to tissue slicing. Serial coronal sections (a thickness of 20 μm) were cut on a freezing microtome and were placed in PBS. The sections were later processed for free-floating TH or iNOS immunohistochemistry.
The sections were rinsed three times with PBS (30 minutes for each time), were treated with 3% H2O2/10% methanol in PBS for 30 minutes for quenching the endogenous peroxidase activity, and were rinsed three times with PBS. […]
TH expression level in the striatum and the substantia nigra (SN), and iNOS expression level in the striatum were determined according to the method as described in section 4 of General Procedures on Day 21 after the injection of 6-OHDA or the vehicle. […]

[2] = test system: SH-SY5Y human neuroblastoma cells; experiment: Effects on oxidative stress (TBHP or CHP), MTT assay; type: cell-based; details: 10 μM for 30 minutes, then CHP 300 μM for 3 hours; vs pathological control; FIG. 9
Method: 3-(4,5-Dimethylthiazol-2-yl)-2,5-diphenyltetrazolium bromide (MTT) assay was conducted generally as follows. A MTT solution was added to culture of the cells in the respective well so that a MTT concentration of 0.5 mg/mL was reached, followed by cultivation for 4 hours. The liquid in the respective well was removed, and dimethylsulfoxide (DMSO) was added into the respective well to dissolve formazan dye. Absorbance of the mixture in the respective well at 570 nm (OD570) was measured using an OPTImax microplate reader (Molecular Devices).
The SH-SY5Y human neuroblastoma cells were respectively treated with products 1, 2, 3, 4, 5, 7, and 3,3′-diallyl-biphenyl-4,4′-diol (compound 55) (10 μM) for 30 minutes. 3,3′-diallyl-biphenyl-4,4′-diol (compound 55) was prepared from commercially available 4,4′-biphenol (compound 54) generally according to the method as described in Ablard, F. et al., Bioorg. Med. Chem. Lett. 2007, 17, 4428. Subsequently, the SH-SY5Y human neuroblastoma cells were exposed to cumene hydroperoxide (CHP) or tert-butyl hydroperoxide (TBHP) (300 μM, Riedel-de Haen) for 3 hours after the treatment with the respective biphenolic compound of formula (I).
Cell viability was evaluated as follows. The SH-SY5Y human neuroblastoma cells were subjected to the MTT assay as described in section 1 of General Procedures. The relative cell viability (%) was calculated by substituting the absorbance into the following formula:
where D=relative cell viability • E=OD570 of the pathological control, or the SH-SY5Y human neuroblastoma cells treated with the respective biphenolic compound of formula (I) • F=OD570 of the normal control The obtained data were subjected to the statistical analysis as described in section 5 of General Procedures.

[3] = test system: mouse model of PD (6-OHDA unilateral striatal lesion); experiment: Beam walking test, incoordination induced by 6-OHDA; type: in vivo, NMRI mice
Method: Product 1 was administered intraperitoneally to NMRI mice at a dose of 5 mg/kg. 30 minutes after the administration of product 1, the NMRI mice were subjected to 6-OHDA injection according to the method as described in section 2 of General Procedures.
NMRI mice into which the vehicle was injected, and which were not treated with product 1 before the injection of the vehicle, served as a sham operated control. NMRI mice that were subjected to 6-OHDA injection and that were not treated with product 1 before the 6-OHDA injection served as a pathological control.
The NMRI mice were subjected to the beam walking test as described in the following subsection 3 on Day 1 and Day 7 after the injection of 6-OHDA or the vehicle. The obtained data were subjected to the statistical analysis as described in section 5 of General Procedures.
NMRI mice were subjected to 6-OHDA injection according to the method as described in section 2 of General Procedures. On Day 7 after the 6-OHDA injection, product 1 was administered intraperitoneally to the NMRI mice at a dose of 5 mg/kg respectively for 7 and 14 consecutive days.
NMRI mice into which a vehicle (saline containing 0.02% ascorbic acid) was injected (generally according to the method as described in section 2 of General Procedures, except that 6-OHDA was not injected), and which were not treated with product 1 after the injection of the vehicle, served as a sham operated control. NMRI mice that were subjected to 6-OHDA injection and that were not treated with product 1 after the 6-OHDA injection served as a pathological control.
The NMRI mice were subjected to the beam walking test as described in the following subsection 3 on Day 14 or Day 21 after the injection of 6-OHDA or the vehicle. The obtained data were subjected to the statistical analysis as described in section 5 of General Procedures.
A beam walking test was conducted under proper conditions, e.g., silence and illumination, so as to evaluate coordination of the respective NMRI mouse. The respective NMRI mouse was placed at a starting point of a beam having a height of 50 cm from a supporting surface, equipped with an escape plateform at each end. […] Before the beam walking test, the respective mouse was trained to walk through the beam for 3 days so that the escape latency thereof was less than 20 seconds. The total travel distance was measured.

C=CCc1ccc(O)c(-c2ccc(O)c(CC=C)c2)c1 [product 1, 5,3′-Diallyl-biphenyl-2,4′-diol]
iNOS expression in the striatum, subchronic post-treatment ([1]; 0.5, 1, 5 mg/kg i.p. 14 consecutive days starting Day 7): significantly inhibited iNOS expression in the striatum
relationship between dose and number of iNOS-positive cells in the striatum ([1]; 0.5, 1, 5 mg/kg i.p.): dose-dependent relationship
prevention of cell death (relative cell viability) after exposure to CHP [2]: significantly prevented cell death
14-day post-treatment compared to 7-day post-treatment, motor incoordination ([3]; 5 mg/kg i.p.): more effectively alleviating the motor incoordination
duration of the effect of the pretreatment on motor incoordination ([3]; 5 mg/kg i.p. 30 minutes before 6-OHDA): at least 7 days
motor incoordination (beam walking), pretreatment ([3]; 5 mg/kg i.p. 30 minutes before 6-OHDA, Day 1 and Day 7 after 6-OHDA, FIGS. 18(A), 18(B)): significantly alleviated the motor incoordination
motor incoordination (beam walking), 7-day post-treatment ([3]; 5 mg/kg i.p. for 7 days starting Day 7 after 6-OHDA, tested Day 14, FIG. 19): significantly alleviated the motor incoordination
motor incoordination (beam walking), 14-day post-treatment ([3]; 5 mg/kg i.p. for 14 days starting Day 7 after 6-OHDA, tested Day 21, FIG. 19): significantly alleviated the motor incoordination
